# Measured values reported in patent US20070275944A1, “Antioxidants and methods of their use” (The Board of Trustees Operating Michigan State University, priority 2006, published 2007).
# System: mouse brain, dopaminergic neurons
# Test: MRI imaging of mouse brain after injection of tracer
# Assay type: in vivo
# Conditions: mice, MRI images 48 hours after administration
# Excerpt: The central figure is a chimera directly comparing the left hemisphere of the control with the right hemisphere of the TP-TEMPO treated. In this central image the “Y” shaped region (1) is where the dopaminergic neurons are found.
# With its dependence on the more biologically variable parameters of proton density, longitudinal relaxation time (T1), and transverse relaxation time (T2), variable image contrast can be achieved by using different pulse sequences and by changing the imaging parameters. Signal intensities on T1, T2, and proton density-weighted images relate to specific tissue characteristics. Moreover, with MRI's multi-planar capability, the imaging plane can be optimized for the anatomic area being studied, and the relationship of lesions to eloquent areas of the brain can be defined more accurately. Since T2-weighted images are most sensitive for detecting brain pathology, patients with suspected intracranial disease are typically screened using the T2-weighted regime. However, it has proven difficult to apply MRI to Parkinson's disease, as the dompaminergic neurons have the same MRI characteristics as the surrounding tissues, so that the Parkinson's lesions are invisible using conventional MRI and can only be detected using histology post-mortem. […]
smiles,measurement,value
"CN1CC=C(C2CC(C)(C)N(O)C(C)(C)C2)CC1 [TP-TEMPO, 2,2,6,6-tetramethyl-4-(1-methyl-1,2,3,6-tetrahydropyridin-4-yl)piperidin-1-oxyl]",migration of probe to the dopaminergic neurons,preferentially migrated to the dopaminergic neurons
same,partitioning of probe into the brain,partitioned preferentially into the brain
